Each structure is given as a SMILES string.

Data set [1] concerns CEM-SS. In words: Inhibitory activity against HIV-1 virus replication as determined by an XTT endpoint by 50%. As to conditions: Homo sapiens, read-out: ED50 (the source's name). It is filed as functional.
Data set [2] can be described thus: Lipophilicity index (RP-HPLC pH 7). It is filed as physicochemical. As to conditions: buffer.
In another data set the test system is H9. In words: Inhibitory activity against human T cell lymphoma (H9) growth by 50 %. It is filed as functional.
Data set [3] deals with Human immunodeficiency virus type 1 protease (Human immunodeficiency virus 1, UniProt Q72874). In words: Inhibitory activity against HIV-1 protease cleavage of [V-S-Q-N-(beta-naphthylalanine)-P-I-V).
The nature of data set [4]: In vitro therapeutic index was evaluated. It is filed as functional.
Data set [5] concerns CEM-SS. The experiment in a line: Inhibitory activity against HIV-2 virus replication as determined by an XTT endpoint by 50%. The data set is classed as functional. As to conditions: Homo sapiens, read-out: ED50 (the source's name).
A short description of data set [6]: Plasma elimination half life was determined for the compound. It is filed as ADME, cell-free.

By CC50 is commonly meant the concentration at which the toxic effect on the cells reaches its halfway point. Lower therefore signals harm at low concentration. As a reminder, the IC50 is the concentration at which inhibition is half-maximal. A lower IC50 goes with higher potency. For `CC(C)(C)OC(=O)N[C@@H](Cc1ccccc1)[C@H](O)CNC[C@@H](O)[C@H](Cc1ccccc1O)NC(=O)OC(C)(C)C`, the EC50 with CEM-SS [1] worked out at 1200 nM. Moreover, the “Log k'” value in data set [2] is given as 1.16. Half-maximal cytotoxicity in the data set with H9 (CC50) was put at 17000 nM. Moreover, the IC50 in data set [3] was found to be 300 nM.
Take `CC(C)(C)OC(=O)N[C@@H](Cc1ccccc1)[C@H](O)CNC[C@@H](O)[C@H](Cc1ccc2ncccc2c1)NC(=O)OC(C)(C)C`: the EC50 in the data set with CEM-SS [1] is 30 nM. Further, the midpoint of cytotoxicity with H9, the CC50, lay at 15000 nM. In data set [3], this compound had an IC50 of 130 nM.
As for `CC(C)(C)OC(=O)N[C@@H](Cc1ccccc1)[C@H](O)CNC[C@@H](O)[C@H](Cc1ccc(OCC(=O)N2CCCCC2)cc1)NC(=O)OC(C)(C)C`, in the data set on CEM-SS [1], the EC50 amounted to 70 nM. In data set [2], the “Log k'” value is on record as 1.33. Besides, the half-maximal cytotoxic concentration (CC50) in the data set with H9 worked out at 17000 nM. For the same compound, the concentration for half-maximal inhibition (IC50) in data set [3] amounted to 90 nM.
On the same counts, the results for `CC(C)(C)OC(=O)N[C@@H](Cc1ccccc1)[C@H](O)CNC[C@@H](O)[C@H](Cc1ccc(OCC(O)c2ccccn2)cc1)NC(=O)OC(C)(C)C` (stereo partly specified) are 200 nM, 0.81, 58000 nM and 110 nM.
On the same counts, the results for `CC(C)(C)OC(=O)N[C@@H](Cc1ccccc1)[C@H](O)CNC[C@@H](O)[C@H](Cc1ccc(OCC(=O)O)cc1)NC(=O)OC(C)(C)C` are 74000 nM, 0.12, over 100000 nM and 150 nM.
As for `CC(C)(C)OC(=O)N[C@@H](Cc1ccccc1)[C@H](O)CNC[C@@H](O)[C@H](Cc1ccc(COC(=O)N2CCOCC2)cc1)NC(=O)OC(C)(C)C`, the EC50 in the data set with CEM-SS [1] worked out at 40 nM. Besides, in data set [2], the “Log k'” value is 1.23. In the data set with H9, this compound displayed a CC50 of 27000 nM. Moreover, the IC50 in data set [3] was 30 nM.
On the same counts, the results for `COCCOc1ccc(C[C@H](NC(=O)OC(C)(C)C)[C@H](O)CNC[C@@H](O)[C@H](Cc2ccccc2)NC(=O)OC(C)(C)C)cc1` are 70 nM, 1.19, 20000 nM and 72 nM.
With `CN1CCN(CCOc2ccc(C[C@H](NC(=O)OC(C)(C)C)[C@H](O)CNC[C@@H](O)[C@H](Cc3ccccc3)NC(=O)OC(C)(C)C)cc2)C1=O`, the EC50 in the data set on CEM-SS [1] worked out at 50 nM. Also, the “Log k'” value in data set [2] turned out to be 1.04. In the data set with H9, this compound came in with a cytotoxic concentration (CC50) of 50000 nM. This compound gave an IC50 in data set [3] of 60 nM.
On the same counts, the results for `CN(C)C(=O)OCCOc1ccc(C[C@H](NC(=O)OC(C)(C)C)[C@H](O)CNC[C@@H](O)[C@H](Cc2ccccc2)NC(=O)OC(C)(C)C)cc1` are 120 nM, 1.24, 16000 nM and 40 nM.
Take `CC(C)(C)OC(=O)N[C@@H](Cc1ccccc1)[C@H](O)CNC[C@@H](O)[C@H](Cc1ccc(OCCc2ccccn2)cc1)NC(=O)OC(C)(C)C`: in the data set with CEM-SS [1], the EC50 stood at 40 nM. The “Log k'” value in data set [2] is 1.39. Further, it took 5000 nM to reach half-maximal cytotoxicity with H9 (CC50). The same compound displayed a half-maximal inhibitory concentration (IC50) in data set [3] of 50 nM.
For `CC(C)(C)OC(=O)N[C@@H](Cc1ccccc1)[C@H](O)CNC[C@@H](O)[C@H](Cc1cccc(O)c1)NC(=O)OC(C)(C)C`, in the data set on CEM-SS [1], the EC50 was found to be 150 nM. For the same compound, in data set [2], the “Log k'” value came out at 0.92. In the data set with H9, the CC50 was 17000 nM. The compound further showed a half-maximal inhibitory concentration (IC50) in data set [3] of 200 nM.
One may read the half-life as how long it takes for the measured level to halve. High values mean slow loss, low ones fast loss. Compound `CC(C)(C)OC(=O)N[C@@H](Cc1ccccc1)[C@H](O)CNC[C@@H](O)[C@H](Cc1ccccc1)NC(=O)OC(C)(C)C` registered a Therapeutic index in data set [4] of 100. In addition, the values for the EC50 in the data set with CEM-SS [1] and in the data set with CEM-SS [5] were 80 nM and 120 nM, respectively. Also, the “Log k'” value in data set [2] is 1.39. It took 8500 nM to reach half-maximal cytotoxicity in the data set with H9 (CC50). Besides, the half-life in data set [6] is 4 h.
In the case of `CC(C)(C)OC(=O)N[C@@H](Cc1ccccc1)[C@H](O)CNC[C@@H](O)[C@H](Cc1ccncc1)NC(=O)OC(C)(C)C`, the EC50 in the data set with CEM-SS [1] turned out to be 540 nM. The “Log k'” value in data set [2] is given as 0.8. Moreover, in the data set with H9, it took 67000 nM to reach half-maximal cytotoxicity (CC50). This compound also had an IC50 in data set [3] of 400 nM.
On the same counts, the results for `CC(C)(C)OC(=O)N[C@@H](Cc1ccccc1)[C@H](O)CNC[C@@H](O)[C@H](Cc1ccc(O)cc1)NC(=O)OC(C)(C)C` are 90 nM, 0.79, 32000 nM and 100 nM.
On the same counts, the results for `CC(C)(C)OC(=O)N[C@@H](Cc1ccccc1)[C@H](O)CNC[C@@H](O)[C@H](Cc1ccc(OCCOc2cccnc2)cc1)NC(=O)OC(C)(C)C` are 40 nM, 1.25, 18000 nM and 60 nM.
On the same counts, the results for `CC(C)(C)OC(=O)N[C@@H](Cc1ccccc1)[C@H](O)CNC[C@@H](O)[C@H](Cc1ccc(OCc2ccccc2)cc1)NC(=O)OC(C)(C)C` are 170 nM, 2, 1800 nM and 300 nM.
On to `CC(C)(C)OC(=O)N[C@@H](Cc1ccccc1)[C@H](O)CNC[C@@H](O)[C@H](Cc1ccc(OCCO)cc1)NC(=O)OC(C)(C)C`, for which the EC50 in the data set with CEM-SS [1] amounted to 60 nM. Besides, in data set [2], the “Log k'” value was determined as 0.82. This compound gave a 50% cytotoxic concentration (CC50) in the data set with H9 of 56000 nM. In data set [3], this compound registered an IC50 of 64 nM.
As for `CC(C)(C)OC(=O)N[C@@H](Cc1ccccc1)[C@H](O)CNC[C@@H](O)[C@H](Cc1ccc(OCC(=O)N2CCOCC2)cc1)NC(=O)OC(C)(C)C`, the EC50 in the data set with CEM-SS [1] worked out at 100 nM. Further, in data set [2], the “Log k'” value worked out at 0.87. Further, the CC50 with H9 is over 100000 nM. Further, in data set [3], the midpoint of inhibition, the IC50, lay at 100 nM.
With `CC(C)(C)OC(=O)N[C@@H](Cc1ccccc1)[C@H](O)CNC[C@@H](O)[C@H](Cc1cccc(OCc2ccccc2)c1)NC(=O)OC(C)(C)C`, the EC50 with CEM-SS [1] came to 90 nM. Further, in data set [2], the “Log k'” value stood at 2.04. This compound showed a CC50 in the data set on H9 of 1900 nM. The same compound had an IC50 in data set [3] of 140 nM.
As to `CC(C)(C)OC(=O)N[C@@H](Cc1ccccc1)[C@H](O)CNC[C@@H](O)[C@H](Cc1ccc(OCCN2CCOC2=O)cc1)NC(=O)OC(C)(C)C`, in the data set with CEM-SS [1], the EC50 stood at 80 nM. Also, the “Log k'” value in data set [2] is recorded as 0.82. The half-maximal cytotoxic concentration (CC50) with H9 was 52000 nM. The compound further gave a 50% inhibitory concentration (IC50) in data set [3] of 40 nM.
On the same counts, the results for `CC(C)(C)OC(=O)N[C@@H](Cc1ccccc1)[C@H](O)CNC[C@@H](O)[C@H](Cc1ccc(CCC(=O)N2CCOCC2)cc1)NC(=O)OC(C)(C)C` are 210 nM, 1.03, 58000 nM and 85 nM.
For `CC(C)(C)OC(=O)N[C@@H](Cc1ccccc1)[C@H](O)CNC[C@@H](O)[C@H](Cc1ccc(OCCN2CCOCC2)cc1)NC(=O)OC(C)(C)C`, the EC50 in the data set with CEM-SS [1] came out at 70 nM. For the same compound, the “Log k'” value in data set [2] is given as 1.18. For the same compound, in the data set with H9, half-maximal cytotoxicity (CC50) was put at 25000 nM. Moreover, in data set [3], the 50% inhibitory concentration (IC50) was 100 nM.
On to `COCCCCOc1ccc(C[C@H](NC(=O)OC(C)(C)C)[C@H](O)CNC[C@@H](O)[C@H](Cc2ccccc2)NC(=O)OC(C)(C)C)cc1`, for which the EC50 in the data set on CEM-SS [1] is under 30 nM. Also, the “Log k'” value in data set [2] is on record as 1.6. This compound also showed a half-maximal cytotoxic concentration (CC50) with H9 of 12000 nM. The 50% inhibitory concentration (IC50) in data set [3] was 50 nM.
On the same counts, the results for `CC(C)(C)OC(=O)N[C@@H](Cc1ccccc1)[C@H](O)CNC[C@@H](O)[C@H](Cc1ccc(OCCCN2CCOCC2=O)cc1)NC(=O)OC(C)(C)C` are 56 nM, 0.92, 59000 nM and 80 nM.
On to `CC(C)(C)OC(=O)N[C@@H](Cc1ccccc1)[C@H](O)CNC[C@@H](O)[C@H](Cc1ccc(OCCCN2CCOCC2)cc1)NC(=O)OC(C)(C)C`, for which the EC50 with CEM-SS [1] was 40 nM. For the same compound, in data set [2], the “Log k'” value was determined as 1.28. Besides, in the data set with H9, the midpoint of cytotoxicity, the CC50, lay at 17000 nM. In data set [3], inhibition was half-maximal at 86 nM (IC50).
In the case of `CC(O)COc1ccc(C[C@H](NC(=O)OC(C)(C)C)[C@H](O)CNC[C@@H](O)[C@H](Cc2ccccc2)NC(=O)OC(C)(C)C)cc1` (stereo partly specified), the EC50 in the data set with CEM-SS [1] was 70 nM. Moreover, in data set [2], the “Log k'” value is listed as 1.02. This compound returned a half-maximal cytotoxic concentration (CC50) with H9 of 22000 nM. In data set [3], this compound came in with a 50% inhibitory concentration (IC50) of 49 nM.
On the same counts, the results for `CC(C)(C)OC(=O)N[C@@H](Cc1ccccc1)[C@H](O)CNC[C@@H](O)[C@H](Cc1ccc(OCCCc2nc3ccccc3o2)cc1)NC(=O)OC(C)(C)C` are 1500 nM, 1.98, 5900 nM and 280 nM.
On to `CC(C)(O)COc1ccc(C[C@H](NC(=O)OC(C)(C)C)[C@H](O)CNC[C@@H](O)[C@H](Cc2ccccc2)NC(=O)OC(C)(C)C)cc1`, for which the EC50 in the data set on CEM-SS [1] was 90 nM. For the same compound, the “Log k'” value in data set [2] stood at 1.22. In addition, the CC50 with H9 came to 49000 nM. The compound also came in with a 50% inhibitory concentration (IC50) in data set [3] of 120 nM.
Take `CC(C)(C)OC(=O)N[C@@H](Cc1ccccc1)[C@H](O)CNC[C@@H](O)[C@H](Cc1ccc(OCCn2ccnc2)cc1)NC(=O)OC(C)(C)C`: in the data set with CEM-SS [1], the EC50 is 50 nM. Besides, the “Log k'” value in data set [2] is 0.96. Also, the half-maximal cytotoxic concentration (CC50) with H9 was 22000 nM. This compound registered an IC50 in data set [3] of 90 nM.
Regarding `CC(C)(C)OC(=O)N[C@@H](Cc1ccccc1)[C@H](O)CNC[C@@H](O)[C@H](Cc1ccc(OCc2nc3ccccc3o2)cc1)NC(=O)OC(C)(C)C`, the EC50 with CEM-SS [1] is 110 nM. The “Log k'” value in data set [2] amounted to 1.69. Also, the midpoint of cytotoxicity in the data set on H9, the CC50, lay at 1900 nM. The same compound registered a half-maximal inhibitory concentration (IC50) in data set [3] of 320 nM.

The values above are taken from ChEMBL document CHEMBL1129312, “Aminodiol HIV protease inhibitors. Synthesis and structure-activity relationships of P1/P1' compounds: correlation between lipophilicity and cytotoxicity” (J Med Chem, 1996).
